# In PMC12473123, “Structure–Function Insights into Quinuclidine-3-One BisQACs: Synthesis, Modulation of Bacterial Resistance, Structure–Activity Relationship, and Biological Profiling” (Pharmaceuticals, 2025):
# Experiments:
# [1] = tested on: Escherichia coli ATCC 25922; test: Broth microdilution MIC; type: cell-based; conditions: Escherichia coli, ATCC25922, read-out: Minimum Inhibitory Concentrations (MIC)
# RPE1 cells = test: Cytotoxicity MTS assay; type: cell-based, human; conditions: Homo sapiens, RPE-1, 48 h, read-out: IC50 RPE1
# Protocol: (§1) The cytotoxic potential of the selected drug candidates was evaluated using the CellTiter 96® AQueous One Solution Cell Proliferation Assay (Promega, Madison, WI, USA), following the manufacturer’s protocol. Human cell lines RPE1 and HEK293 were cultured at 37 °C in a humidified incubator with 5% CO2. Test compounds were dissolved in the appropriate growth medium and serially diluted across a range of concentrations in 96-well microtiter plates. Each well was seeded with 5000 cells and incubated for 48 h under standard culture conditions. Following this incubation period, 20 µL of MTS reagent was added to each well, and the plates were further incubated for 3 h to allow for color development. Absorbance was measured at 490 nm using a microplate reader to determine cell viability. Cytotoxicity was quantified as the half-maximal inhibitory concentration (IC50), defined as the concentration of compound that reduced cell viability by 50%. […] IC50 values were calculated using GraFit 6.0 software by plotting compound concentration against absorbance and fitting the data to a sigmoidal dose–response curve.
# HEK293 cells = test: Cytotoxicity MTS assay; type: cell-based, human; conditions: Homo sapiens, HEK293, 48 h, read-out: IC50 HEK293
# Protocol: as §1
# [2] = tested on: Listeria monocytogenes ATCC 7644; test: Time-resolved growth kinetics; type: cell-based; conditions: MIC and ½ MIC
# Protocol: The antimicrobial activity of the candidate compounds against Staphylococcus aureus ATCC 25923 and Listeria monocytogenes ATCC 7644 was further evaluated using a time-resolved growth kinetics assay in 96-well microtiter plates. Overnight bacterial cultures were diluted in fresh, pre-warmed Mueller–Hinton broth (MHB) and incubated at 37 °C with orbital shaking at 220 rpm. Upon reaching the exponential growth phase (OD600 = 0.3–0.5), cultures were standardized to a final concentration of 5 × 10^4 CFU/mL. Aliquots (50 µL) of the standardized inoculum were dispensed into wells containing either no antimicrobial agent (negative control) or the test compounds at concentrations corresponding to ½ MIC and MIC. Bacterial growth was continuously monitored over a 24 h period by measuring absorbance at 595 nm every 10 min using a Bio-Tek EL808 microplate reader (Winooski, VT, USA). Growth kinetics were assessed by comparing the optical density profiles of treated samples against the untreated control. Each experiment was performed independently twice, with all conditions tested in triplicate. Data are presented as the mean values of these replicates.
# [3] = tested on: Staphylococcus aureus ATCC 25923; test: Time-kill kinetics assay; type: cell-based
# Protocol: To assess the temporal dynamics of bacterial viability upon exposure to the test compounds, a time-kill kinetics assay was performed using the Gram-positive reference strain Staphylococcus aureus ATCC 25923. An overnight culture of the strain was subcultured into fresh, pre-warmed Mueller–Hinton broth (MHB) and incubated under aerobic conditions at 37 °C with agitation (220 rpm) until reaching the early exponential growth phase. The bacterial suspension was then standardized to an initial concentration of approximately 5 × 10^5 CFU/mL. […] Wells containing untreated bacterial cultures served as growth controls. Immediately after mixing, a 10 µL sample from each well was withdrawn, diluted in 990 µL of MHB, and serially diluted tenfold up to 10^−6. From each dilution, 20 µL was plated on MHB agar using a sterile loop to determine the initial bacterial count (time zero). The treated plates were incubated at 37 °C, and additional samples were collected at predetermined time points (2, 4, 6, 8, 12, and 24 h) following the same dilution and plating protocol. After 24 h of incubation at 37 °C, colonies were counted, and viable bacterial counts were expressed as log10 CFU/mL for each time point. Bactericidal activity was evaluated by plotting the log10 CFU/mL over time, providing a dynamic profile of the compound’s killing kinetics.
# [4] = tested on: Listeria monocytogenes ATCC 7644; test: Broth microdilution MIC; type: cell-based; conditions: for MIC: Listeria monocytogenes, ATCC7644, read-out: Minimum Inhibitory Concentrations (MIC), Listeria monocytogenes ATCC 7644
# [5] = tested on: Staphylococcus aureus ATCC 33591 (methicillin-resistant); test: Broth microdilution MIC; type: cell-based; conditions: Staphylococcus aureus, ATCC33591, read-out: Minimum Inhibitory Concentrations (MIC)
# [6] = tested on: Pseudomonas aeruginosa ATCC 27853; test: Broth microdilution MIC; type: cell-based; conditions: for MIC: Pseudomonas aeruginosa, ATCC27853, read-out: Minimum Inhibitory Concentrations (MIC)
# [7] = tested on: Listeria monocytogenes ATCC 7644; test: Biofilm inhibition assay (crystal violet); type: cell-based; conditions: Listeria monocytogenes, ATCC7644, read-out: biofilm inhibition
# Protocol: The ability of the candidate compounds to inhibit biofilm formation was evaluated by determining the minimum biofilm inhibitory concentration (MBIC) against the biofilm-forming strains Staphylococcus aureus ATCC 25923 and Listeria monocytogenes ATCC 7644. Overnight bacterial cultures were diluted in fresh, pre-warmed Mueller–Hinton broth (MHB) and incubated at 37 °C with constant shaking at 220 rpm. Once the cultures reached the exponential growth phase (OD600 = 0.3–0.5), they were standardized to a final concentration of 4 × 10^6 CFU/mL.
# Aliquots (50 µL) of the standardized bacterial suspension were inoculated into 96-well microtiter plates containing the test compounds at final concentrations of 100, 50, 25, and 12.5 µg/mL. Plates were incubated at 37 °C for 24 to 48 h, depending on the bacterial strain. After incubation, the planktonic cells were carefully aspirated to preserve the integrity of the biofilm layer. Wells were gently rinsed with sterile ultrapure Milli-Q water and air-dried at 60 °C for 1 h to fix the biofilms. Biofilm formation was quantified using a crystal violet (CV) staining method. Wells were stained with 100 µL of 0.1% CV solution and incubated at room temperature for 1 h. Excess dye was removed by rinsing with sterile ultrapure Milli-Q water, followed by air-drying. Bound CV was solubilized with 100 µL of 70% ethanol and incubated for 30 min. The solubilized dye was transferred to a fresh plate, and absorbance was measured at 595 nm using a microplate reader (Bio-Tek EL808, Winooski, VT, USA). Absorbance values were directly proportional to biofilm biomass. Untreated bacterial cultures served as positive controls for biofilm formation, while sterile MHB served as the negative control.
Compound,MIC [1],IC50 (RPE1 cells),IC50 (HEK293 cells),effect on bacterial growth [2],time to rapid bactericidal activity ([3]; S. aureus ATCC 25923),"time to complete killing ([3]; S. aureus ATCC 25923, 2 × MIC)",MIC [4],MIC [5],MIC [6],inhibition at 6.25 µg/mL [7],inhibition at 12.5 µg/mL [7],inhibition at 25 µg/mL [7],inhibition at 50 µg/mL [7],inhibition at 100 µg/mL [7],time to complete eradication / elimination of viable cells (CFU) ([3]; S. aureus ATCC 25923),Minimum Inhibitory Concentrations (MIC) ([4]; Listeria monocytogenes ATCC 7644),Minimum Inhibitory Concentrations (MIC) ([6]; Pseudomonas aeruginosa ATCC 27853)
"CCCCCCCCCCCCCCCCNC1C[N+]2(CCC[N+]34CCC(CC3)C(NCCCCCCCCCCCCCCCC)C4)CCC1CC2 (racemic) [2(QC16)3, (±)-1,1′-(Propane-1,3-diyl) bis(3-(hexadecylamino)quinuclidinium) dibromide]",> 75 µM,69 µM,21 µM,pronounced inhibitory effect,≤ 3 h,2 h,9 µM,19 µM,> 75 µM,91%,93%,94%,94%,97%,,,
"CCCCCCCCCCCCCCCCNC1C[N+]2(CCCCCC[N+]34CCC(CC3)C(NCCCCCCCCCCCCCCCC)C4)CCC1CC2 (racemic) [2(QC16)6, (±)-1,1′-(Hexane-1,6-diyl) bis(3-(hexadecylamino)quinuclidinium) dibromide]",19 µM,5 µM,7 µM,pronounced inhibitory effect,,,38 µM,5 µM,> 75 µM,40%,69%,81%,88%,89%,≤ 2 h,19 µM,largely inactive
